Assay results reported in patent US20230321253A1, “BIFUNCTIONAL COMPOUNDS AND PHARMACEUTICAL USES THEREOF” (RISEN (SUZHOU) PHARMA TECH CO., LTD., priority 2022, published 2023).

Key:
KRAS-G12D protein = target: T1, KRAS-G12D protein (Homo sapiens, UniProt P01116, G12D); test: KRAS-G12D protein degradation study in Aspc-1 cells (western blot); type: cell-based; conditions: for inhibition at 1 µM / inhibition at 0.1 µM / inhibition at 0.05 µM: ASPC1, 24 h; for inhibition at 1 µM: Aspc-1 cells treated with 1 μM compound; for inhibition at 1 µM / inhibition at 0.1 µM: read-out: Rate of protein degradation (KRAS^G12D); for DC50: Aspc-1 cells, read-out: DC50 of test compound-induced KRAS^G12D protein degradation; for inhibition at 0.05 µM: Aspc-1 cells treated with 50 nM compound, read-out: Rate of degradation (KRAS^G12D)
T1 construct: host or cells: Aspc-1 cells
T1 sequence (P01116 1-188 isoform P01116-2 G12D): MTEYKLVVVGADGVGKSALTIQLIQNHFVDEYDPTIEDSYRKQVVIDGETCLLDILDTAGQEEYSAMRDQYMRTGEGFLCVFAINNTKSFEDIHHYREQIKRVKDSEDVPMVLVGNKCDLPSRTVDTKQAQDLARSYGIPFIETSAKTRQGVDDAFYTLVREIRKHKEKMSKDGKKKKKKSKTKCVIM
In short: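 AsPC-1 cells were treated with compound for 24 h at 37° C (0.1% DMSO final), then lysed; KRAS levels measured by western blot. Degradation % = 1 − (KRAS/GAPDH, compound) ÷ (KRAS/GAPDH, DMSO), ×100; DC50 derived from concentration curves.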

Aspc-1 cells = test: Cell proliferation study in Aspc-1 cells (Cell Titer Glo); type: cell-based; conditions: Homo sapiens, ASPC1, 72 hours, read-out: IC50, inhibitory effect on cellular proliferation
Protocol: Aspc-1 (Cobioer, CBP60546) cells were grown in RPMI 1640 (Gibco, 61870127) supplemented with 10% fetal bovine serum (Gibco, 10099141), 1% penicillin-streptomycin (Gibco, 15070-063). Aspc-1 cells in exponential growth phase were seeded into 96-well plate (Corning, 3599) at density of 4×10^3/well. Cells were cultured overnight at 37° C. with 5% CO2. On the next day, cells were treated with test compound at various concentrations for 72 hours in 37° C., 5% CO2 incubator (final DMSO concentration was 0.1%). After treatment, 100 μL Cell Tier Glo (Promega, G7573) was added to every well of the cell plates and the plates were incubated at room temperature (RT) for 10 minutes. Cell growth status was measured with Cell Tier Glo (Promega, G7573) following the manufacturer's instructions. The inhibition curve was obtained with GraphPad 7.0 software using four-parameter equation.

[1] = Aspc-1 cells treated with 0.1 μM compound, 24 hours

Row | SMILES | inhibition at 1 µM (KRAS-G12D protein; 24 hours) | IC50 (Aspc-1 cells) | inhibition at 0.1 µM (KRAS-G12D protein; [1]) | DC50 (KRAS-G12D protein) | Rate of protein degradation (KRAS^G12D) (KRAS-G12D protein; [1]) | inhibition at 0.05 µM (KRAS-G12D protein; 24 hours)
1 | C#Cc1c(F)ccc2cc(O)cc(-c3ncc4c(N5CC6CCC(C5)N6)nc(OC5CCN(CCCCCCCCCC(=O)N[C@H](C(=O)N6C[C@H](O)C[C@H]6C(=O)NCc6ccc(-c7scnc7C)cc6)C(C)(C)C)CC5)nc4c3F)c12 [Compound 41] | > 60% | 101 to 1000 nM | – | – | – | –
2 | C#Cc1c(F)ccc2cc(O)cc(-c3ncc4c(N5CC6CCC(C5)N6)nc(OC5CCN(CCCCCCCCCCC(=O)N[C@H](C(=O)N6C[C@H](O)C[C@H]6C(=O)NCc6ccc(-c7scnc7C)cc6)C(C)(C)C)CC5)nc4c3F)c12 [Compound 43] | > 60% | 101 to 1000 nM | – | – | – | –
3 | CCc1c(F)ccc2cc(O)cc(-c3ncc4c(N5CC6CCC(C5)N6)nc(OC5CCN(CCCCCCCCCCC(=O)N[C@H](C(=O)N6C[C@H](O)C[C@H]6C(=O)NCc6ccc(-c7scnc7C)cc6)C(C)(C)C)CC5)nc4c3F)c12 [Compound 44] | 31 to 60% | 1000 to 5000 nM | – | – | – | –
4 | C#Cc1c(F)ccc2cc(O)cc(-c3ncc4c(N5CC6CCC(C5)N6)nc(OC5CCN(CCCCCCCCCCC(=O)N[C@H](C(=O)N6C[C@H](O)C[C@H]6C(=O)N[C@@H](C)c6ccc(-c7scnc7C)cc6)C(C)(C)C)CC5)nc4c3F)c12 [Compound 45] | > 60% | 101 to 1000 nM | 31 to 60% | – | – | –
5 | C#Cc1c(F)ccc2cc(O)cc(-c3ncc4c(N5CC6CCC(C5)N6)nc(OC5CCN(CCCCCCCCCCCC(=O)N[C@H](C(=O)N6C[C@H](O)C[C@H]6C(=O)NCc6ccc(-c7scnc7C)cc6)C(C)(C)C)CC5)nc4c3F)c12 [Compound 46] | > 60% | 101 to 1000 nM | – | – | – | –
6 | C#Cc1c(F)ccc2cc(O)cc(-c3ncc4c(N5CC6CCC(C5)N6)nc(OC5CCN(CCCCCCCCCCCCCC(=O)N[C@H](C(=O)N6C[C@H](O)C[C@H]6C(=O)NCc6ccc(-c7scnc7C)cc6)C(C)(C)C)CC5)nc4c3F)c12 [Compound 47] | 31 to 60% | 1000 to 5000 nM | – | – | – | –
7 | C#Cc1c(F)ccc2cc(O)cc(-c3ncc4c(N5CC6CCC(C5)N6)nc(OC5CCN(CCCCCCCCCC(=O)N6CCC(c7ccc8c(C9CCC(=O)NC9=O)nn(C)c8c7)CC6)CC5)nc4c3F)c12 (stereo not shown) [Compound 50] | 11 to 30% | 1000 to 5000 nM | – | – | – | –
8 | C#Cc1c(F)ccc2cc(O)cc(-c3ncc4c(N5CC6CCC(C5)N6)nc(OC5CCN(CC(=O)N6CCC7(CC6)CC(N6CCC(c8ccc9c(C%10CCC(=O)NC%10=O)nn(C)c9c8)CC6)C7)CC5)nc4c3F)c12 (stereo not shown) [Compound 82] | – | 1000 to 5000 nM | > 60% | < 10 nM | – | –
9 | C#Cc1c(F)ccc2cc(O)cc(-c3ncc4c(N5CC6CCC(C5)N6)nc(OCC5(CN6CCN(C(=O)CN7CCC(c8ccc9c(C%10CCC(=O)NC%10=O)nn(C)c9c8)CC7)CC6)CC5)nc4c3F)c12 (stereo not shown) [Compound 92] | – | < 100 nM | – | < 10 nM | +++ (greater than 60%) | –
10 | C#Cc1c(F)ccc2cc(O)cc(-c3ncc4c(N5CC6CCC(C5)N6)nc(OCC5(CN6CCC(C(=O)N7CCC8(CC7)CC(N7CCC(c9ccc%10c(C%11CCC(=O)NC%11=O)nn(C)c%10c9)CC7)C8)CC6)CC5)nc4c3F)c12 (stereo not shown) [Compound 111] | – | < 100 nM | > 60% | < 10 nM | – | –
11 | C#Cc1c(F)ccc2cc(O)cc(-c3ncc4c(N5CC6CCC(C5)N6)nc(OCC5(CN6CCC7(CC6)CC(N6CCC(c8ccc9c(C%10CCC(=O)NC%10=O)nn(C)c9c8)CC6)C7)CC5)nc4c3F)c12 (stereo not shown) [Compound 112] | – | < 100 nM | > 60% | < 10 nM | – | –
12 | C#Cc1c(F)ccc2cc(O)cc(-c3ncc4c(N5CC6CCC(C5)N6)nc(OCC5(CN6CCC(C(=O)N7CCC(N8CCC(c9ccc%10c(C%11CCC(=O)NC%11=O)nn(C)c%10c9)CC8)CC7)CC6)CC5)nc4c3F)c12 (stereo not shown) [Compound 129] | – | < 100 nM | – | < 10 nM | – | > 60%
13 | C#Cc1c(F)ccc2cc(O)cc(-c3ncc4c(N5CC6CCC(C5)N6)nc(OCC5(CN6CCC(CN7CCC(c8ccc9c(C%10CCC(=O)NC%10=O)nn(C)c9c8)CC7)CC6)CC5)nc4c3F)c12 (stereo not shown) [Compound 133] | – | < 100 nM | – | < 10 nM | – | > 60%
14 | C#Cc1c(F)ccc2cc(O)cc(-c3ncc4c(N5CC6CCC(C5)N6)nc(OCC5(CN6CCC(CN7CCN(c8cccc9c8C(=O)N(C8CCC(=O)NC8=O)C9=O)CC7)CC6)CC5)nc4c3F)c12 (stereo not shown) [Compound 135] | – | < 100 nM | – | < 10 nM | – | 31 to 60%
15 | C#Cc1c(F)ccc2cc(O)cc(-c3ncc4c(N5CC6CCC(C5)N6)nc(OCC5(CN6CCC(CN7CCC(c8ccc9c(c8)CN(C8CCC(=O)NC8=O)C9=O)CC7)CC6)CC5)nc4c3F)c12 (stereo not shown) [Compound 146] | – | < 100 nM | – | < 10 nM | – | > 60%
16 | C#Cc1c(F)ccc2cc(O)cc(-c3ncc4c(N5CC6CCC(C5)N6)nc(OCC5(CN6CCC(CCN7CCC(c8ccc9c(C%10CCC(=O)NC%10=O)nn(C)c9c8)CC7)CC6)CC5)nc4c3F)c12 (stereo not shown) [Compound 149] | – | < 100 nM | – | < 10 nM | – | > 60%
17 | C#Cc1c(F)ccc2cc(O)cc(-c3ncc4c(N5CC6CCC(C5)N6)nc(OCC5(CN6CCC7(CC6)CC(N6CCN(c8ccc(NC9CCC(=O)NC9=O)cc8F)CC6)C7)CC5)nc4c3F)c12 (stereo not shown) [Compound 150] | – | < 100 nM | – | < 10 nM | – | > 60%
18 | C#Cc1c(F)ccc2cc(O)cc(-c3ncc4c(N5CC6CCC(C5)N6)nc(OCC5(CN6CCC7(CC6)CC(N6CCN(c8ccc9c(c8)C(=O)N(C8CCC(=O)NC8=O)C9=O)CC6)C7)CC5)nc4c3F)c12 (stereo not shown) [Compound 154] | – | < 100 nM | – | < 10 nM | – | > 60%
19 | C#Cc1c(F)ccc2cc(O)cc(-c3ncc4c(N5CC6CCC(C5)N6)nc(OCC5(CN6CCCN(C(=O)CN7CCC(c8ccc9c(C%10CCC(=O)NC%10=O)nn(C)c9c8)CC7)CC6)CC5)nc4c3F)c12 (stereo not shown) [Compound 155] | – | < 100 nM | – | 11 to 50 nM | – | > 60%
20 | CCc1c(F)ccc2cc(O)cc(-c3ncc4c(N5CC6CCC(C5)N6)nc(OCC5(CN6CCC(C(=O)N7CCC8(CC7)CC(N7CCC(c9ccc%10c(C%11CCC(=O)NC%11=O)nn(C)c%10c9)CC7)C8)CC6)CC5)nc4c3F)c12 (stereo not shown) [Compound 156] | – | < 100 nM | – | < 10 nM | – | 31 to 60%
21 | C#Cc1c(F)ccc2cc(O)cc(-c3ncc4c(N5CC6CCC(C5)N6)nc(OCC5(CN6CCC7(CC6)CC(N6CCC(c8cccc9c8CN(C8CCC(=O)NC8=O)C9=O)CC6)C7)CC5)nc4c3F)c12 (stereo not shown) [Compound 157] | – | 101 to 1000 nM | – | > 200 nM | – | 11 to 30%
22 | C#Cc1c(F)ccc2cc(O)cc(-c3ncc4c(N5CC6CCC(C5)N6)nc(OCC5(CN6CCC7(CC6)CC(N6CCC(c8ccc9c%10c(cccc8%10)C(=O)N9C8CCC(=O)NC8=O)CC6)C7)CC5)nc4c3F)c12 (stereo not shown) [Compound 158] | – | < 100 nM | – | < 10 nM | – | > 60%
23 | CCc1c(F)ccc2cc(O)cc(-c3ncc4c(N5CC6CCC(C5)N6)nc(OCC5(CN6CCC7(CC6)CC(N6CCC(c8ccc9c(C%10CCC(=O)NC%10=O)nn(C)c9c8)CC6)C7)CC5)nc4c3F)c12 (stereo not shown) [Compound 160] | – | < 100 nM | – | < 10 nM | – | > 60%
24 | C#Cc1c(F)ccc2cc(O)cc(-c3ncc4c(N5CC6CCC(C5)N6)nc(OCC5(CN6CCC7(CC6)CC(N6CCC(c8ccc9c(c8)n(C)c(=O)n9C8CCC(=O)NC8=O)CC6)C7)CC5)nc4c3F)c12 (stereo not shown) [Compound 164] | – | < 100 nM | – | < 10 nM | – | > 60%
25 | C#Cc1c(F)ccc2cc(O)cc(-c3ncc4c(N5CC6CCC(C5)N6)nc(OCC5(CN6CCC(CN7CCC(c8ccc9c%10c(cccc8%10)C(=O)N9C8CCC(=O)NC8=O)CC7)CC6)CC5)nc4c3F)c12 (stereo not shown) [Compound 168] | – | < 100 nM | – | – | – | > 60%
26 | C#Cc1c(F)ccc2cc(O)cc(-c3ncc4c(N5CC6CCC(C5)N6)nc(OCC5(CN6CC7(CC(N8CCC(c9ccc%10c(C%11CCC(=O)NC%11=O)nn(C)c%10c9)CC8)C7)C6)CC5)nc4c3F)c12 (stereo not shown) [Compound 169] | – | < 100 nM | – | – | – | > 60%
